No end group written: not given here.
How the values were obtained:
[1] = target: T1, EphB3 (Homo sapiens, UniProt P54753); assay: Phage clone binding to immobilized EphB3 ectodomain Fc (phage ELISA); details: phage clone displaying the peptide
T1 construct: Histidine-tagged EphB ectodomain Fc fusion proteins were incubated overnight
T1 sequence (P54753 34-559 limits assumed): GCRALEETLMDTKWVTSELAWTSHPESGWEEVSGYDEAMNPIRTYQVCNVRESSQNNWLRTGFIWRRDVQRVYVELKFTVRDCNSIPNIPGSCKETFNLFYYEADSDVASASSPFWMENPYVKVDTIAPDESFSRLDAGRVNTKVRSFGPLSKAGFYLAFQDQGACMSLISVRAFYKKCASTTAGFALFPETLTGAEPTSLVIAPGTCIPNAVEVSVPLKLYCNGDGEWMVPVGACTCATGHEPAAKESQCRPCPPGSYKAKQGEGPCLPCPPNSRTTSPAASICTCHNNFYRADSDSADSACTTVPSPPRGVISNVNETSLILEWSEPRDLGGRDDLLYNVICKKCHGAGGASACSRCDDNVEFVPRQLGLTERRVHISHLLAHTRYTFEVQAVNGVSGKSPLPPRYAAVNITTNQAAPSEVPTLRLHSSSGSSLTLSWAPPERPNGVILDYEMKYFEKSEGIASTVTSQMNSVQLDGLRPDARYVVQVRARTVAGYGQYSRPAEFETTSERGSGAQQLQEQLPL
Description: To identify EphB receptor-binding peptides, an M13 phage library (R&D Systems, Minneapolis, Minn.) displaying random 12 amino acid-long peptides was panned on the ectodomains of EphB1, EphB2, or EphB4 fused to human Fc and immobilized on nickel-coated wells through a carboxy-terminal hexahistidine tag (FIG. 1). Phage binding to Ni-NTA wells coated with 1 μg/ml Eph receptor Fe fusion proteins was quantified using an anti-phage antibody conjugated to horseradish peroxidase (M13 phage detection kit, Amersham Biosciences) with 2,2-azino-bis(3-ethylbenzothiazoline-6-sulfonic acid) as a substrate. The background that was subtracted from the measurements was determined without EphB4 Fc. Histidine-tagged EphB ectodomain Fc fusion proteins were incubated overnight at 4° C. in nickel-nitrilotriacetic acid (Ni-NTA)-coated ELISA wells at concentrations of 10 μg/ml in Tris-buffered saline (TBS) (150 mM NaCl, 50 mM Tris-HCl, pH 7.5), except for EphB2 and EphB4 rounds 3.2 and 4, which were with 1 μg/ml. […] Phage recovered after the first round of panning (1*) were not quantified to ensure that rare clones would be recovered.
The binding selectivity of the phage clones for the different mammalian EphB receptors was also determined (Table 1). […]

[2] = target: T2, EphB6 (Homo sapiens, UniProt O15197); assay: Phage clone binding to immobilized EphB6 ectodomain Fc (phage ELISA); details: phage clone displaying the peptide
T2 construct: Histidine-tagged EphB ectodomain Fc fusion proteins were incubated overnight
T2 sequence (O15197 32-594 limits assumed): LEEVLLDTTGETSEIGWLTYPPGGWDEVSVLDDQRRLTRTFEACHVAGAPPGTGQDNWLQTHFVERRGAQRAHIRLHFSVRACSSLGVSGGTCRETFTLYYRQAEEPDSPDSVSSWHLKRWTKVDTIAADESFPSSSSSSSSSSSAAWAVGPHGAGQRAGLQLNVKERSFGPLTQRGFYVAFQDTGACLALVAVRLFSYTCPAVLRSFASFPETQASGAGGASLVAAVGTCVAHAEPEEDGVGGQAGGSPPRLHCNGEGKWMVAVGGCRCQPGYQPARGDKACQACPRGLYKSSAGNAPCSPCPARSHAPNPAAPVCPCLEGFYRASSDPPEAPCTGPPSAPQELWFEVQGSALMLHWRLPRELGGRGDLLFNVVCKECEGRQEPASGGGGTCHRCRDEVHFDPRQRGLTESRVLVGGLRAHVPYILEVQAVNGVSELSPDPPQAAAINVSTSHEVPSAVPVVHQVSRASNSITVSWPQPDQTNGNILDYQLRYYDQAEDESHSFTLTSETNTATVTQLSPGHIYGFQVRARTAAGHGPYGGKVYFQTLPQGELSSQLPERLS
Description: Phage binding to Ni-NTA wells coated with 1 μg/ml Eph receptor Fe fusion proteins was quantified using an anti-phage antibody conjugated to horseradish peroxidase (M13 phage detection kit, Amersham Biosciences) with 2,2-azino-bis(3-ethylbenzothiazoline-6-sulfonic acid) as a substrate. The background that was subtracted from the measurements was determined without EphB4 Fc. […] In round 1 of panning, 2×10^11 plaque forming units (PFUs) of the phage library in 100 μl binding buffer were incubated for 1 hour at room temperature in the EphB receptor-coated wells.

- EphB Receptor Specificity (% Binding) B3 [1]: 1%
- EphB Receptor Specificity (% Binding) B6 [2]: 0%
Sequence: EWLSPNLAPSVR [compound 1]
